Literature values, collected in patent US8309133B2, “Nanoparticulate quinazoline derivative formulations” (Alkermes Pharma Ireland Limited, priority 2005, dated 2012).
Where two headings read alike, the source gives them in different places.

How the values were obtained:
[1] = water at 37° C.
[2] = oral tablet

**Q.** With `C#Cc1cccc(Nc2ncnc3cc(OCCOC)c(OCCOC)cc23)c1.Cl` [erlotinib HCl, N-(3-ethynylphenyl)-6,7-bis(2-methoxyethoxy)-4-quinazolinamine] as the molecule, how does the Solubility in water [1] read?
**A.** very slightly soluble

**Q.** And the Absorption ([2]; administered with food)?
**A.** 100%

**Q.** And the Absorption ([2]; without food)?
**A.** 60%
